The text below walks through data of article PMC8658016, “Identification of New Compounds with Anticonvulsant and Antinociceptive Properties in a Group of 3-substituted (2,5-dioxo-pyrrolidin-1-yl)(phenyl)-Acetamides” (International Journal of Molecular Sciences, 2021).

Each structure is given as a SMILES string.

For series [1], the system named is mice. The experiment in a line: Capsaicin-induced neurogenic pain test. Type of series: in vivo. The following applies: Mus musculus, ip; mice i.p. How it is done:
We used the capsaicin-induced pain model to test the impact of compound 14 on neurogenic pain. In this model, the activation of TRPV1 receptors on C-type primary afferents led to the release of inflammatory neuropeptides, contributing to the local and spinal sensitization and excitability.
The experiments were conducted on adult male Albino Swiss mice (CD-1, 18–25 g) and male Wistar rats (Krf:(WI) WU), 180–250 g) as described previously. The minimum number of animals used needed to obtain definite and normally distributed results with the utilized test. Behavioral measures were scored by trained observers, which were blind to experimental conditions. The following devices were used in the experiments: Analgesy Meter (37215, Ugo Basile), Plantar Test Apparatus (EFV5, Commat Ltd., Turkey), Plethysmometer (Plethysmometer 7140, Ugo Basile), Electronic von Frey unit (BIOSEB, France). […]
Data were presented as means ± standard error of the mean (S.E.M). […] Statistically significant differences between groups were calculated using one-way analysis of variance (ANOVA) and the post hoc Dunnett’s multiple comparison test or two-way analysis of variance (ANOVA) and the post hoc Tukey’s comparison when appropriate. […]

Series [2] relates to mice. The experiment in a line: Grip strength test (neuromuscular strength). Type of series: in vivo, mouse. To be noted: 30 min. How it is done:
Figure 3 Acute effect of compound 14 on the neuromuscular strength in mice. Compound 14 was administered i.p. 30 min before the test. Control animals received vehicle only. Each experimental group consisted of 10 animals. Each bar represents the mean + S.E.M. grip strengths in Newtons per gram of mouse body weight (N/g). * p < 0.05 vs. the control group (one-way ANOVA, followed by Dunnett’s post hoc test, GraphPad Prism 8.0.1).
In this study, we used adult male Swiss albino mice (Kołacz, Laboratory Animals Breeding, Warszawa, Poland) license no. 106/2019 (Local Ethical Committee in Lublin). In studies assessing the acute effect of compound 14 on neuromuscular strength, body temperature, and seizure threshold, compound 14 was suspended in a 1% solution of Tween 80 and administered i.p., 30 min before the tests.
The acute effect of compound 14 on neuromuscular strength was quantified using the grip-strength apparatus (BIOSEB, Chaville, France) according to the method described elsewhere.

The target of a further series is T1, CYP3A4 (Homo sapiens, UniProt P08684).
T1 construct: purchased Promega (Madison, WI, USA)
T1 sequence (P08684 whole entry): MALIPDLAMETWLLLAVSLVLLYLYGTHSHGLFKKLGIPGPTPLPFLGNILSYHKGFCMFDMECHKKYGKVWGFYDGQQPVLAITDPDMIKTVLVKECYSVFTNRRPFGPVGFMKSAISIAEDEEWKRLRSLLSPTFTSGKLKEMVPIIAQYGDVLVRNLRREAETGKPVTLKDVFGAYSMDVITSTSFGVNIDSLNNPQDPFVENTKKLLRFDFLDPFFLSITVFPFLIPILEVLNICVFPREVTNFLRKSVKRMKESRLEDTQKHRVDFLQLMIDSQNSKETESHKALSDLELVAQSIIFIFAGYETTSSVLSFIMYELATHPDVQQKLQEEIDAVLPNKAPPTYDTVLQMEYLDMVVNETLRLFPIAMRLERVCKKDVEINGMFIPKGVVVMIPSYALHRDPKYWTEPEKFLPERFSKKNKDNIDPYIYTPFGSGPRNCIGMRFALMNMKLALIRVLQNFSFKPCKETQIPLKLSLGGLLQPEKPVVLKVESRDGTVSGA
The experiment in a line: CYP3A4 P450-Glo luminescent assay. It counts as in vitro ADME.

A short description of another series: SH-SY5Y viability (MTS). It counts as cell-based. The following applies: human, neuroblastoma SH-SY5Y cells.
For series [3], the system named is Cav1.2 channel (dihydropyridine site, antagonist radioligand). The experiment in a line: Radioligand binding, Cav1.2 channel (dihydropyridine site). To be noted: rat cerebral cortex.
The subject of series [4] is mice. The experiment in a line: Psychomotor 6 Hz (32 mA) seizure test. Type of series: in vivo, mouse. The following applies: mice i.p.
Series [5] deals with Cav1.2 (h) calcium ion channel (Homo sapiens, UniProt Q13936). The experiment in a line: Cav1.2 calcium ion channel cell based antagonist calcium flux assay. To be noted: HEK293, read-out: % Inhibition of Control Agonist Response, Cav1.2 (h) calcium ion channel cell based antagonist calcium flux assay. On the technique in general: Calcium flux is commonly read through the fluorescence of an indicator in the cells.
Sequence of Cav1.2 (h) calcium ion channel (Q13936 whole entry): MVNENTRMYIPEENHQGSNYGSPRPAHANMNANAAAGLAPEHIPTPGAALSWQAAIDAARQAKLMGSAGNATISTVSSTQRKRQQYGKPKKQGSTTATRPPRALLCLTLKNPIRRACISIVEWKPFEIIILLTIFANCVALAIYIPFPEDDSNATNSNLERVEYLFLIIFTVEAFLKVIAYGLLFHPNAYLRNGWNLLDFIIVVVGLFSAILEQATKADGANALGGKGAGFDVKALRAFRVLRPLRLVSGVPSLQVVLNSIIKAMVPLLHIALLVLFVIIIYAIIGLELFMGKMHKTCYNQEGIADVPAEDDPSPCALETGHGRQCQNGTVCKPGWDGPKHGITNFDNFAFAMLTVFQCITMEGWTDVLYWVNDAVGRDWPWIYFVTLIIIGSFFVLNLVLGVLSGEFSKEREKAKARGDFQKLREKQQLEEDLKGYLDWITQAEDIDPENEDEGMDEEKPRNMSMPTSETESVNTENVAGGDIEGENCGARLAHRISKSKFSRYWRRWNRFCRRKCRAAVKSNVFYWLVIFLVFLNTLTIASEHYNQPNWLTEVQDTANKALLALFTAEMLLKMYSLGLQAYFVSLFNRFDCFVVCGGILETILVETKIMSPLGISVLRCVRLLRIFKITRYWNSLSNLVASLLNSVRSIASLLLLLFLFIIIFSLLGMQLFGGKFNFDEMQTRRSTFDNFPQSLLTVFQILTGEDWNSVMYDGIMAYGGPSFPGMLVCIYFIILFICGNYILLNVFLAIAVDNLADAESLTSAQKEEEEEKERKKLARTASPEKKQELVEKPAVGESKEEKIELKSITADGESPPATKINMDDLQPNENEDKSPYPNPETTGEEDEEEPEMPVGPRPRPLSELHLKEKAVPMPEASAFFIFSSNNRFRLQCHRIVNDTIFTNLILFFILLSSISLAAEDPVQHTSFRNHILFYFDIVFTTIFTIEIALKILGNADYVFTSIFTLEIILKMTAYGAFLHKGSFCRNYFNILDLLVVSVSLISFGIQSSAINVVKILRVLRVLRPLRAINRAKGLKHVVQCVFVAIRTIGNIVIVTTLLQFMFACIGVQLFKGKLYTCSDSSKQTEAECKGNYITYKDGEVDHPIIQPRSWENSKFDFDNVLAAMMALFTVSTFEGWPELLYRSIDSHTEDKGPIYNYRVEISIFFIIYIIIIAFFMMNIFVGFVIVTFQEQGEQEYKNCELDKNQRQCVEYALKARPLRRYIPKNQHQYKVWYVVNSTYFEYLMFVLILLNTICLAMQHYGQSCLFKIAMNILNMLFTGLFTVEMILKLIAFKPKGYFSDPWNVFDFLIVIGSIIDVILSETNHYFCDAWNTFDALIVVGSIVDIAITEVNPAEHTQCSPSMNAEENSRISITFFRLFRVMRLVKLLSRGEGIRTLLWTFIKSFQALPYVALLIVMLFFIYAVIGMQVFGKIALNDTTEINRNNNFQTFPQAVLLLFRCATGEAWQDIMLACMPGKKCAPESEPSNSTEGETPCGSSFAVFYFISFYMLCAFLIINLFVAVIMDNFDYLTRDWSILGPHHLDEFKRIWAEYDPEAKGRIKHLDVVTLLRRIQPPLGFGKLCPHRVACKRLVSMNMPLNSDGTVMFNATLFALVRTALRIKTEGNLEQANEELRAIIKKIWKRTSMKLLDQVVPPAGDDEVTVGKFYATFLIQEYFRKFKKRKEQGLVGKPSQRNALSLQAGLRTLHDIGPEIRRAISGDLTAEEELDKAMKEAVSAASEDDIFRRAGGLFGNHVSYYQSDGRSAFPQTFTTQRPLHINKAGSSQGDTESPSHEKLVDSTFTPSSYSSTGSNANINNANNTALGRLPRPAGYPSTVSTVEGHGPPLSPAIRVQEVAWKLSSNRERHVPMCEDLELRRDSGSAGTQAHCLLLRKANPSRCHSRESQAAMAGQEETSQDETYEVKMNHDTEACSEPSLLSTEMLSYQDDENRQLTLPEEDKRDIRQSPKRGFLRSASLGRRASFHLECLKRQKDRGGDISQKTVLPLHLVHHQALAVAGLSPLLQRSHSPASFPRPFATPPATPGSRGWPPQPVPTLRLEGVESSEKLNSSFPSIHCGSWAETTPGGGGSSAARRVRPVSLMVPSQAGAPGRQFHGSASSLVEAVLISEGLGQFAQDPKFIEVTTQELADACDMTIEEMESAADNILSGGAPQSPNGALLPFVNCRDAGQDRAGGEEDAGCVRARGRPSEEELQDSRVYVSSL
Sequence of Cav1.2 (h) calcium ion channel (Q08289 whole entry partner): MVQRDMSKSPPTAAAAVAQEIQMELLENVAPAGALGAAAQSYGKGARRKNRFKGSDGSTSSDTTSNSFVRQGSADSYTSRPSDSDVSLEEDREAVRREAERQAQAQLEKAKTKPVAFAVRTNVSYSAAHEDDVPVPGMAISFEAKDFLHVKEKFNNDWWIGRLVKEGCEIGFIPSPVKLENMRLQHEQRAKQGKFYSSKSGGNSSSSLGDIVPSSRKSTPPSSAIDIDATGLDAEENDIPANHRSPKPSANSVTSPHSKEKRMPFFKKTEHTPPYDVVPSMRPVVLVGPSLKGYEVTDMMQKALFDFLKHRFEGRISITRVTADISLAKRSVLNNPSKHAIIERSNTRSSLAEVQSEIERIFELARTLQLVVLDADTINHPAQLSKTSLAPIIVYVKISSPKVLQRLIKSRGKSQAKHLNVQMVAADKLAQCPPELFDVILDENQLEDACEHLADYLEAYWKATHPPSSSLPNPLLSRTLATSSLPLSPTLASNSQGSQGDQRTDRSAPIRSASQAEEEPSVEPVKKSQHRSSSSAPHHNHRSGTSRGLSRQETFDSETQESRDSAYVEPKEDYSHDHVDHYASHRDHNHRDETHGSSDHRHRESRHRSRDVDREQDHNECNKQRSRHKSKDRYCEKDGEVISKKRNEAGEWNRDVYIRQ
Sequence of Cav1.2 (h) calcium ion channel (P54289 25-956 partner limits assumed): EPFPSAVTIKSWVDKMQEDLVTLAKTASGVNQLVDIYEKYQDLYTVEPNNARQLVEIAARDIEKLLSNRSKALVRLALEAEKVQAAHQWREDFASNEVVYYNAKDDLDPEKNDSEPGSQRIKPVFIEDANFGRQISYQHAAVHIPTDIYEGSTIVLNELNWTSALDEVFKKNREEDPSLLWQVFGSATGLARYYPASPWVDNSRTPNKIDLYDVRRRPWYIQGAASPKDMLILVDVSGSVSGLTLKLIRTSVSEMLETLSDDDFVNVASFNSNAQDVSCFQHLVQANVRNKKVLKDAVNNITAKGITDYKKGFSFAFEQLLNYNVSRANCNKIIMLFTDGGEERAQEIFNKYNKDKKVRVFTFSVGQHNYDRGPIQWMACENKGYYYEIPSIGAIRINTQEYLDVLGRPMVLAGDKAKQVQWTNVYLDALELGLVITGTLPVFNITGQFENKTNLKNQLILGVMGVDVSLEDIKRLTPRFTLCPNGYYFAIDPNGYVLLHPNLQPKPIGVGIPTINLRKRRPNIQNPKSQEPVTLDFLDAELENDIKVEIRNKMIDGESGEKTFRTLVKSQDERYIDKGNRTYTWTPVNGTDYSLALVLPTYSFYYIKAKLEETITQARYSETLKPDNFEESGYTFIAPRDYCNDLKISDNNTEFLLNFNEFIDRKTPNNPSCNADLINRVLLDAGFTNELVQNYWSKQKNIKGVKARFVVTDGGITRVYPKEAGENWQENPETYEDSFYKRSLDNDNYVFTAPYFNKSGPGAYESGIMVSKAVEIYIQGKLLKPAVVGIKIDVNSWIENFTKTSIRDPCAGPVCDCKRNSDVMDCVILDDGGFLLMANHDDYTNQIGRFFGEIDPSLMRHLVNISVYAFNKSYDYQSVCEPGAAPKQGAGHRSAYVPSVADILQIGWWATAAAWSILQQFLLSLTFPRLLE
Sequence of Cav1.2 (h) calcium ion channel (P54289 957-1103 partner limits assumed): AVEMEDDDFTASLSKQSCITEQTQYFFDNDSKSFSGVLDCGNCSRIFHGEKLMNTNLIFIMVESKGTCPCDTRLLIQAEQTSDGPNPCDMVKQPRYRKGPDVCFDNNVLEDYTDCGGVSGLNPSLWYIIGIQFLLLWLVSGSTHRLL

The test system of the next series is rats. The experiment in a line: Carrageenan-induced thermal hyperalgesia (radiant heat). It counts as in vivo, rat. The following applies: 80 mg/kg. An excerpt:
To test the anti-inflammatory activity and the potential to attenuate inflammatory pain, we tested compound 14 in the model of carrageenan-induced aseptic inflammation. In this model, the subplantar injection of carrageenan induced an edema, mechanical, and thermal hyperalgesia. […] In our opinion, the most surprising and interesting was the long-lasting anti-edematous effect. It may result from the pharmacokinetic properties of compound 14, but also from its unique mechanism. Since inflammation is one of the critical components of neuropathy, the anti-inflammatory activity of compound 14 may be a valuable and distinctive property from classical ASDs used to treat neuropathic pain [33]. […] The pain threshold reached 87.3%, 90.9%, and 89.7% of its initial value 3, 6, and 24 h after carrageenan injection, respectively. […] The initial latency for compound 14-treated animals was 8.95 ± 0.4 s. The administration of compound 14 changed the values to 127.0%, 102.0%, 79.8%, 83.8%, and 164.4% of the initial value 1, 2, 3, 6-, and 24-h following carrageenan injection, respectively.
The experiments were conducted on adult male Albino Swiss mice (CD-1, 18–25 g) and male Wistar rats (Krf:(WI) WU), 180–250 g) as described previously. The minimum number of animals used needed to obtain definite and normally distributed results with the utilized test. Behavioral measures were scored by trained observers, which were blind to experimental conditions. The following devices were used in the experiments: Analgesy Meter (37215, Ugo Basile), Plantar Test Apparatus (EFV5, Commat Ltd., Turkey), Plethysmometer (Plethysmometer 7140, Ugo Basile), Electronic von Frey unit (BIOSEB, France). All procedures were performed according to the European Union Directive of 22 September 2010 (2010/63/EU) and approved by the Local Ethics Committee for Experiments on Animals in Krakow, Poland (resolution no. 105/2016).
Figure 8 Effect of compound 14 on carrageenan-induced oedema (A), mechanical hyperalgesia (B), and thermal hyperalgesia (C), developed after subplantar injection of 1% carrageenan in rats. Data are expressed as means ± S.E.M. for 6 animals; 0—the initial value considered as the paw volume (A) or nociceptive reaction (B,C) before carrageenan administration. Statistical significance compared to vehicle-treated animals (control): * p < 0.05, ** p < 0.01, *** p < 0.001, **** p < 0.0001. Statistical analysis: two-way ANOVA post hoc Bonferroni test. Statistical significance in different time points of control group: ^# p < 0.05, ^## p < 0.01, ^### p < 0.001. Statistical analysis: one-way ANOVA, followed by Dunnett’s multiple comparison test (GraphPad Prism 8.0.1).

Series [6] has as its system mice. The experiment in a line: Subcutaneous pentylenetetrazole (scPTZ) seizure test. Type of series: in vivo, mouse. The following applies: mice i.p.
Setting [7] is: Mus musculus, ip, 95% confidence interval in parentheses.

For `CN(C)C1CC(=O)N(C(C(=O)N2CCN(c3cccc(C(F)(F)F)c3)CC2)c2ccccc2)C1=O.Cl` (centres unmarked) [Compound 14, 3-(Dimethylamino)-1-(2-oxo-1-phenyl-2-(4-(3-(trifluoromethyl)phenyl)-piperazin-1-yl)ethyl)pyrrolidine-2,5-dione hydrochloride], the ED50 in the series on mice [1] was determined as 54.1 mg/kg; in the series on mice [4] (setting [7]) it was 31.3 mg/kg; in the series on mice [6] (setting [7]), 67.4 mg/kg. Besides, the “effect on neuromuscular strength (grip strength)” value in the series with mice [2] (30 mg/kg i.p.) is given as “did not significantly affect”. Besides, the “effect on grip strength” value in the series with mice [2] (60 mg/kg i.p., p < 0.05 (Dunnett)) is reported as “significantly decreased”. For the same molecule, the “CYP3A4 activity in the presence of the compound” value on CYP3A4 (10 µM) is reported as “higher than 50%”. Also, the “CYP3A4 inhibition, classification” value at CYP3A4 (significant inhibition only at 10 µM and 25 µM (p < 0.0001)) is “moderate inhibitor”. For the same molecule, in the series “SH-SY5Y viability (MTS)” (0.001 µM, read-out: SH-SY5Y cell viability, % of the control), the viability at 72 h, 0.001 µM is at most 120%. For the same molecule, the viability at 72 h, 10 µM in the series “SH-SY5Y viability (MTS)” (10 µM, read-out: SH-SY5Y cell viability, % of control) came out at 140%. For the same molecule, the results for the “% Inhibition of Control-Specific Binding, Cav1.2 channel (dihydropyridine site, antagonist radioligand)” value in [3] (10 µM) and in [3] (50 µM) were 6.0% and 75.4%, respectively. Further, the “6 Hz (32 mA) screening: number of mice protected / number of mice tested” value in the series on mice [4] (100 mg/kg, 0.5 h) is given as 3/4. The “protection in the 6 Hz (32 mA) test” value in the series with mice [4] (100 mg/kg, 0.5 h) amounted to 75%. The inhibition at 10 µM in [5] was 29%. Further, the “latency of nociceptive response to radiant heat, % of the initial value” is 127.0% in the series with rats (1 h after carrageenan); 102.0% in the series with rats (2 h after carrageenan); 79.8% in the series on rats (3 h after carrageenan); 83.8% in the series on rats (6 h after carrageenan); 164.4% in the series with rats (24 h after carrageenan). For the same molecule, in the series with mice [6] (100 mg/kg, 0.5 h), the “scPTZ screening: number of mice protected / number of mice tested” value is on record as 2/4.

Usually ED50 stands for the midpoint of the dose-response relation. The viability is a read-out of living cells in per cent, often relative to untreated cells. A word on the inhibition: it is the percentage by which the read-out fell short of the control.
